Earlier results, collected in patent publication US20100137292A1, “Pharmaceutical formulations of meloxicam” (SANOVEL ILAC SANAYI VE TICARET A.S., priority 2008, published 2010).

- Solubility in alcohol (alcohol): very slightly soluble
- Solubility in water (water): practically insoluble
Compound: Cc1cnc(NC(=O)C2=C(O)c3ccccc3S(=O)(=O)N2C)s1 [Meloxicam, 4-hydroxy-2-methyl-N-(5-methyl-2-thiazolyl)-2H-1,2-benzothiazine-3-carboxamide-1,1-dioxide]
